Results on three substances are retold here after patent US20260193668A1, “NOVEL PEPTIDES AND USE THEREOF FOR MODULATING PROTEIN ACCUMULATION” (UNIVERSITE TOULOUSE III - PAUL SABATIER, priority 2022, published 2026).

One assay deals with soybean plants. The assay is described as follows: Heat stress resistance of soybean plants. Particulars: 45° C. for 24 h. It counts as in vivo, Glycine max. An excerpt: (§1) (a, b) Relative area of lesions on S. lycopersicum leaves infected with B. cinerea and treated with an irrelevant peptide or cPEPjar1. (c, d) Heat stress resistance of soybean plants treated with an irrelevant peptide or cPEPsp101. (e, f) Growth (plant height) of soybean plants treated with an irrelevant peptide or a mixture of cPEPs (targeting MRB1, SHY2 and SGR1). (g, h) Leaf area of B. vulgaris plants treated with an irrelevant peptide or a mixture of cPEPs (targeting EIN2, BR11, BAK1 and WUS). (i, j) Leaf surface of A. hypochondriacus plants treated with an irrelevant peptide or a mixture of cPEPs (targeting EIN2, BR11, BAK1 and WUS).
N. benthamiana plants were treated by spraying the leaves 24 h before harvesting. For Luc assays, 100 μL of MS/2 liquid medium containing the peptides was added to each well. 5 μL of luciferin was added and luciferase activity was read 30 min later using a spectrophotometer. All other assays were performed by spraying or watering the plants. To quantify the protein level induced by cPEPs in Arabidopsis, rosettes were sprayed daily with 100 μM of peptide or its control for 5 days. Leaves were harvested 6 h after the last treatment for western blot analysis. […] Chlorophyll content was measured using the SPAD chlorophylometer (Konica Minolta). Leaf area was measured using ImageJ software. […]

Another assay relates to Botrytis cinerea. The assay is described as follows: S. lycopersicum leaves infected with B. cinerea. Particulars: tomato. It counts as in vivo.
Description: as §1
Wild-type or mutant A. thaliana leaves were sprayed daily with 100 μM of peptide or 100 μM of the corresponding scramble version for 3 days. Six hours after the last treatment, five mature leaves per plant were inoculated with a 5 μL droplet of 2.5×10^5 spores/mL of Botrytis cinerea strain B05.10 diluted in 100 μM of peptide or its corresponding scramble version. After inoculation, plants were maintained at 100% relative humidity. Then, a 2 μL droplet of 100 μM of peptide or 100 μM of the corresponding scramble version was deposited daily on B. cinerea-infected leaves for 3 days (until symptoms appeared). Leaves were removed from the plants to determine lesion areas using the ImageJ programme. […]

In assay [1] the test system is luciferase. The assay is described as follows: In vitro transcription/translation of luciferase (wheat germ system). In kind it is biochemical. Conditions: 60 min. An excerpt:
(§2) (a) Analysis of luciferase activity in A. thaliana plants constitutively expressing the LUC transgene and treated with Scrambled cPEPluc or cPEPluc, with or without cycloheximide. (b) Analysis of luciferase activity after in vitro transcription/translation of luciferase expressed with cPEPluc or Scrambled cPEPluc.
The TnT® SP6 high-throughput wheat germ protein expression system (Promega) was used according to the manufacturer's instructions. The LUC sequence was amplified using the GoTaq Polymerase® (Promega), cPEPs or their corresponding Scramble versions were added just prior to the start of the reaction. The reaction was stopped after 60 min, after which LUC activity was measured using a plate spectrophotometer (Perkin-Elmer Victor Nivo).

The subject of assay [2] is luciferase. As to the kind of experiment: Luciferase activity in A. thaliana LUC plants with or without cycloheximide. It counts as in vivo, Arabidopsis thaliana. Particulars: cycloheximide 200 μg·mL^−1, 24 h. The method, then: as §2
Arabidopsis thaliana plants comprising the LUC construct were treated by infiltrating the leaves with a solution of peptide with or without cycloheximide (200 μg·mL^−1) in MS/2 medium, 24 h before harvesting for the LUC assay.

Another assay deals with luciferase mRNA. As to the kind of experiment: Relative expression of the luciferase transgene by RT-qPCR. Particulars: A. thaliana expressing LUC treated with synthetic peptide. In kind it is in vivo, Arabidopsis thaliana. An excerpt:
(§3) Analysis of luciferase expression in A. thaliana constitutively expressing the LUC transgene. (a) Agarose gel after PCR amplification of RNA obtained by immunoprecipitation using anti-HA magnetic beads, followed by RT-PCR, on plants treated with the indicated peptide (SC-HA: Scrambled cPEPluc-HA; Luc-HA: cPEPluc-HA). (b) Relative expression of the luciferase transgene in plants treated with the indicated peptide, quantified by RT-qPCR. (c-e) Relative quantification of LUC in plants treated with the indicated peptide. (f, g) Ratio between induction and quantification of LUC in plants treated with cPEPluc compared to plants treated with Scrambled cPEPluc, using different peptide concentrations (f) or taken at different time points (g). (h) Transcriptomic analysis of plants treated with cPEPluc-HA compared to plants treated with Scrambled cPEPluc-HA. (i) Proteomic analysis of plants treated with cPEPluc-HA compared to plants treated with Scrambled cPEPluc-HA. Protein expression was analysed by Western blots and quantified using ImageJ.
Quantification of mRNAs was performed by qRT-PCR using appropriate primer pairs selected from the sequences: SEQ ID NOs: 367 to 374. Expression levels for the controls were set at 100. The primers used for the A. euteiches assays are described in Camborde et al (New Phytol. 233:2232-2248. 2022).

Assay [3] deals with luciferase. The assay is described as follows: Luciferase activity in A. thaliana constitutively expressing the LUC transgene. It counts as in vivo, Arabidopsis thaliana.
Description: as §3
Medicago truncatula Gaertn cv. Jemalong genotype A17 were grown on Long Aston medium as described in Delaux P M et al (New Phytol. 2013 July; 199(1):59-65). Arabidopsis thaliana Col-0 plants were grown in soil until 4 weeks of age in a growth chamber (22/20° C., 16 h/8 h L/D, RH 80%, ~75 μmol·m^−2 s^−1). Barbarea vulgaris seeds were stratified for 24 h at 4° C. before being grown in pots in a growth chamber. Seeds of Amaranthus hypochondriacus, Glycine max and Solanum lycopersicum were sown in pots and grown in a growth chamber. […]
N. benthamiana plants were treated by spraying the leaves 24 h before harvesting. […] 5 μL of luciferin was added and luciferase activity was read 30 min later using a spectrophotometer. […] To quantify the protein level induced by cPEPs in Arabidopsis, rosettes were sprayed daily with 100 μM of peptide or its control for 5 days. […] Chlorophyll content was measured using the SPAD chlorophylometer (Konica Minolta). Leaf area was measured using ImageJ software. […]

Where [4] appears, read: 96-well assay, cPEPluc compared to Scrambled cPEPluc.

As to “cPEPhsp101 (EEYRKYVEKD; cPEPhsp101) [SEQ ID NO: 408, cPEP targeting the homolog of HSP101 in soybean]”, the “tolerance to heat stress” value in the assay with soybean plants was “increased”.
As to “cPEPjar1: cPEP targeting the tomato JAR1 protein (AFRTFEQVWE; cPEpjar1)”, the “plant's resistance to B. cinerea” value with Botrytis cinerea was “improved”.
Take “cPEPluc: complementary peptide of 10 amino acids corresponding to a 10 amino acid fragment of the luciferase protein (KRYGLNTNHR; cPEPluc)”: the “LUC activity in vitro” value in the assay with luciferase [1] was “increased”. In addition, the “effect of cPEPluc on luciferase activity in the presence of CHX” value in the assay on luciferase [2] is “inhibited”. Besides, in the assay on luciferase mRNA, the “luciferase mRNA abundance (qPCR)” value is recorded as “no effect”. In the assay on luciferase [3] (setting [4]), the “optimum concentration of cPEP for luciferase induction” value came out at 50 µM and the “treatment time showing the maximum effect of cPEP” value amounted to 24 h. The luciferase activity entry with luciferase [3] (A. thaliana LUC seedlings, exogenous peptide treatment, compared with water or non-luciferase-specific peptides) is given as “increased”.
